This is an account of results in patent US6753337B2, “Alkynyl containing hydroxamic acid compounds as matrix metalloproteinase/tace inhibitors” (Wyeth Holdings Corporation, priority 1999, dated 2004).

Assay [1] concerns the target TNF-α converting enzyme (TACE) (Homo sapiens, UniProt P78536). The assay can be described thus: Test procedure for measuring TACE inhibition (fluorescent peptidyl substrate). The assay is classed as biochemical. In outline:
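TACE (1 μg/mL final) preincubated 10 min at room temperature with 1 μM compound in 10 mM Tris pH 7.4, 10% glycerol, DMSO <1%. Treated rates tested against control by Dunnett's test (p<0.05).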

Assay [2] relates to THP-1 cells. Kind of assay: Human monocytic THP-1 cell differentiation assay for soluble proteins (THP-1 soluble protein assay). The assay is classed as cell-based. As to conditions: LPS-stimulated THP-1 cells, soluble protein not given.

Molecules are shown by their SMILES. Where a name gives a salt, the structure may show the parent alone.

Sequence of TNF-α converting enzyme (TACE) (P78536 215-824): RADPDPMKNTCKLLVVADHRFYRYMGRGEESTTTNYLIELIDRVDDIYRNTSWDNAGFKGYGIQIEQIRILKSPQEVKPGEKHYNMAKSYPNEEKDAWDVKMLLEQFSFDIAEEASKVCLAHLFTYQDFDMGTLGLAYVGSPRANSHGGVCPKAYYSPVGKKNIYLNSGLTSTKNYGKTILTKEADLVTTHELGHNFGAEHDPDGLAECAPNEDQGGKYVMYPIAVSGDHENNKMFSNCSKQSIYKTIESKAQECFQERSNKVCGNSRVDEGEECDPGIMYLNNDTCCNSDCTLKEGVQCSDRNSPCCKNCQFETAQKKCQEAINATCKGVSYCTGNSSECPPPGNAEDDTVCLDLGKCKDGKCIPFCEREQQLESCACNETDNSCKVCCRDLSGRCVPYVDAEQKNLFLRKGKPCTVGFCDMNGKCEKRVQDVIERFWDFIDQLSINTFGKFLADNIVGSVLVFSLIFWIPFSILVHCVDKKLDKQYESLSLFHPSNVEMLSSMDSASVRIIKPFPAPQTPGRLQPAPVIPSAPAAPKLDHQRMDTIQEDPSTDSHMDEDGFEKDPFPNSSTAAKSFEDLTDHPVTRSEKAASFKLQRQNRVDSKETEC

The term IC50 denotes the point on the concentration scale where inhibition reaches its midpoint. For orientation: inhibition means the change of the read-out against control, counted positive when it falls. Regarding `CC#CCOc1ccc(S(=O)(=O)C2(C(=O)NO)CCN(Cc3ccc(C(=O)O)cc3)CC2)cc1` [Example 78, 4-({4-{[4-(2-butynyloxy)phenyl]sulfonyl}-4-[(hydroxyamino)-carbonyl]-1-piperidinyl}methyl)benzoic acid hydrochloride], the half-inhibitory concentration (IC50) in assay [1] was 64.5 nM. Also, the inhibition at 3 µM in assay [2] turned out to be 64%.
In assay [1], `CC#CCOc1ccc(S(=O)(=O)C2(C(=O)NO)CCN(Cc3ccc(C(N)=O)cc3)CC2)cc1` [Example 79, 1-[4-(Aminocarbonyl)benzyl]-4-{[4-(2-butynyloxy)phenyl]sulfonyl}-N-hydroxy-4-piperidinecarboxamide hydrochloride] gave a half-maximal inhibitory concentration (IC50) of 70 nM. For the same compound, in assay [2], the inhibition at 3 µM came out at 83%.
Take `CC#CCOc1ccc([S+]([O-])C2(C(=O)NO)CCN(C(=O)OC(C)(C)C)CC2)cc1` (stereo not shown) [Example 80, tert-butyl 4-{[4-(but-2-ynyloxy)phenyl]sulfinyl}-4-[(hydroxyamino)carbonyl]piperidine-1-carboxalate]: in assay [1], the IC50 was determined as 90 nM. Besides, the inhibition at 3 µM in assay [2] is -7%.
Regarding `CC#CCOc1ccc([S+]([O-])C2(C(=O)NO)CCNCC2)cc1` (stereo not shown) [Example 81, 4-(4-(But-2-ynyloxy-benzenesulfinyl)-piperidine-4-carboxylic acid hydroxamide hydrochloride], the IC50 in assay [1] came out at 277 nM. In addition, the inhibition at 3 µM in assay [2] was 25%.
Consider `CC#CCOc1ccc([S+]([O-])C2(C(=O)NO)CCN(Cc3ccc(Br)cc3)CC2)cc1` (stereo not shown) [Example 82, 1-(4-Bromo-benzyl)-4-(4-But-2-ynyloxy-benzenesulfinyl)-piperidine-4-carboxylic acid hydroxamide hydrochloride], for which half-maximal inhibition in assay [1] (IC50) was put at 135 nM. Besides, the inhibition at 3 µM in assay [2] was determined as 16%.
